Results: patent publication EP4706685A1, “PHARMACEUTICAL FORMULATION COMPRISING LANOSTEROL, DERIVATIVE THEREOF, AND CYCLODEXTRIN” (CARBOEXPERT Inc., priority 2023, dated 2024)

What was measured:
[1] = tested on: mouse-derived macrophage cell line (Raw264.7); test: Anti-inflammatory effect against LPS in macrophage cell line, cytokine mRNA by RT-PCR; type: cell-based; details: treated at 5 ug/ml; LPS 0.1 µg/ml, 4 hours
Description: Specifically, Raw264.7 was seeded into a […] at a density of 0.8 X 10^6 cells/well and cultured overnight. Then, the cells were pre-treated with inotodiol and the inotodiol/CD inclusion complex each at different concentrations for 2 hours. The cells were treated with lipopolysaccharide (LPS) at a concentration of 0.1 µg/ml and cultured for 4 hours to induce inflammation, after which RNA was extracted. Then, the mRNA expression of IL-6, IL-1β, and TNF-α was confirmed by a reverse transcription polymerase chain reaction (RT-PCR) method, and the results are shown in FIG. 6.

[2] = Stability in solution (visual observation of precipitation with auxiliary agent); type: physicochemical; details: precipitation observed visually after 24 hours at room temperature
Description: Specifically, unenclosed inotodiol or the inotodiol/CD inclusion complex was mixed with a prepared auxiliary agent. The auxiliary agent was prepared at a concentration of 100 to 15,000 ppm based on the weight of inotodiol, and then treated in a sonic bath at 50 °C for 30 minutes. Afterwards, the stability was determined by visually observing whether precipitation occurred after leaving the mixture at room temperature for 24 hours.

CC(C)=CC[C@@H](O)[C@@H](C)[C@H]1CC[C@@]2(C)C3=C(CC[C@]12C)[C@@]1(C)CC[C@H](O)C(C)(C)[C@@H]1CC3 [inotodiol, (3S,5R,10S,13R,14R,17R)-17-[(2S,3R)-3-hydroxy-6-methylhept-5-en-2-yl]-4,4,10,13,14-pentamethyl-2,3,5,6,7,11,12,15,16,17-decahydro-1H-cyclopenta[a]phenanthren-3-ol]
mRNA expression level of IL-6 [1]: significantly reduced
mRNA expression level of TNF-α [1]: significantly reduced
ppm of inotodiol in solution ([2]; Kolliphor (5 %)): 500 < ppm
ppm of inotodiol in solution ([2]; Tween 80 (1 %)): 100 < ppm
